# In ChEMBL document CHEMBL2029276, “E297G mutated bile salt export pump (BSEP) function enhancers derived from GW4064: structural development study and separation from farnesoid X receptor-agonistic activity” (Bioorg Med Chem Lett, 2012):
# Columns and labels:
# [1] = molecular target: T1, Bile acid receptor (Homo sapiens, UniProt Q96RI1); experiment: Agonist activity at human recombinant FXR expressed in HEK293 cells coexpressing CMX-GAL4N by luciferase reporter gene assay; assay type: functional, cell-based
# T1 sequence (Q96RI1 whole entry): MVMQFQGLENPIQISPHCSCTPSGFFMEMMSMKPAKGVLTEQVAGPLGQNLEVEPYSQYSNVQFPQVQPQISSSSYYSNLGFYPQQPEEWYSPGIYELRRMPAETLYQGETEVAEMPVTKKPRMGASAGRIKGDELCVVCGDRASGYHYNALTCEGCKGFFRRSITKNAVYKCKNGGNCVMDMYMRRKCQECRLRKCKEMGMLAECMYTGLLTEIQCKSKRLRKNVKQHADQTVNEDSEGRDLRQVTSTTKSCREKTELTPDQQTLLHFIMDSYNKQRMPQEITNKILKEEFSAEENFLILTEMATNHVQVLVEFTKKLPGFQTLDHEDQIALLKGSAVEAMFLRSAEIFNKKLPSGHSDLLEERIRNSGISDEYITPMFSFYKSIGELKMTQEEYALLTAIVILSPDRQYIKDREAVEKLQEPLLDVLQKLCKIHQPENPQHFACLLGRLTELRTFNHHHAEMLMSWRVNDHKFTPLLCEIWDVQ
# [2] = molecular target: T2, Bile salt export pump (Homo sapiens, UniProt O95342, E297G); experiment: Enhancement of human BSEP E297G mutant trafficking to cell membrane in MDCK2 cells co-expressing NTCP assessed as accumulation of [3H]taurocholate at 10 uM preincubated for 24 hrs prior incubation with [3H]taurocholate measured after 2 hrs by liquid scintillation counting; settings: mdck-ii
# T2 sequence (O95342 whole entry E297G): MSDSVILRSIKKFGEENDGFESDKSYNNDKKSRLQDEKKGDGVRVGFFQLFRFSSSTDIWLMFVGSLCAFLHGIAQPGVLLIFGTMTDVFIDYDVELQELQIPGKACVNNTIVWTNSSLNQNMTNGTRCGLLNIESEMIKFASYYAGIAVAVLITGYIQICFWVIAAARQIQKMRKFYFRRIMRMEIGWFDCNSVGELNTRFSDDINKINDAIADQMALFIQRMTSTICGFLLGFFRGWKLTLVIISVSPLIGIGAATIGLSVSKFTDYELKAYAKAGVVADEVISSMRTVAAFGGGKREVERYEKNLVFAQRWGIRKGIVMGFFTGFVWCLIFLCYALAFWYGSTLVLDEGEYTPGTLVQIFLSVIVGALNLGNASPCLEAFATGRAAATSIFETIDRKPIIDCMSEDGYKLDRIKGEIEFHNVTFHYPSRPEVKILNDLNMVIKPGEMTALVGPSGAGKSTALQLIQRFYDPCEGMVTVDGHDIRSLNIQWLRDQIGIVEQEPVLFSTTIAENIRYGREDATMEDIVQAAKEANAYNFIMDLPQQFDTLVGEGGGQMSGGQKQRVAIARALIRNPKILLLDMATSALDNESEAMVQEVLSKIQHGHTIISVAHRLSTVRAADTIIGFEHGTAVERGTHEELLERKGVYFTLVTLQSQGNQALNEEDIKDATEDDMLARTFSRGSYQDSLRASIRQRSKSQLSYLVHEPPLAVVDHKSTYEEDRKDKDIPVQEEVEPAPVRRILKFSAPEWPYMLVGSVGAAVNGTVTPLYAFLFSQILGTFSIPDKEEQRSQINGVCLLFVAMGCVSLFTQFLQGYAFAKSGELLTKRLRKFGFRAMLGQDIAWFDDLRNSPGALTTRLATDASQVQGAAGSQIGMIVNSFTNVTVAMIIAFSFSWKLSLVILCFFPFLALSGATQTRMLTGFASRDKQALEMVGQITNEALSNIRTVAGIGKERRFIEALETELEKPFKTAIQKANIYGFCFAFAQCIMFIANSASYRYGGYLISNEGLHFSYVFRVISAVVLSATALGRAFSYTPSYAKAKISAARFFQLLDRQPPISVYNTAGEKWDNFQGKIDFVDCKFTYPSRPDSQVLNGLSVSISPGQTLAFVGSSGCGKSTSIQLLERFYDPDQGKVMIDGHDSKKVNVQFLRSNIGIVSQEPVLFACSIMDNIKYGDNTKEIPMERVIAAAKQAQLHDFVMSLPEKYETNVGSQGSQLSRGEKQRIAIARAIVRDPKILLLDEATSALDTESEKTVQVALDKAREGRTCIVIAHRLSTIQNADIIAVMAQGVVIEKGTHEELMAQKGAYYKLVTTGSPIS
# [3] = molecular target: T2, Bile salt export pump; experiment: Enhancement of human BSEP E297G mutant trafficking to cell membrane in MDCK2 cells co-expressing NTCP assessed as accumulation of [3H]taurocholate at 1 uM preincubated for 24 hrs prior incubation with [3H]taurocholate measured after 2 hrs by liquid scintillation counting; settings: mdck-ii
Structure (SMILES),EC50 [1] [nM],Activity [2] [%],Activity [3] [%]
CCCCN(C(=O)c1ccc(OCc2c(-c3c(Cl)cccc3Cl)noc2C(C)C)cc1Cl)c1cccc(C(=O)O)c1,1100,–,–
CC(C)c1onc(-c2c(Cl)cccc2Cl)c1COc1ccc(C(=O)N(c2cccc(C(=O)O)c2)c2cccc3ccccc23)c(Cl)c1,3000,–,–
CC(C)c1onc(-c2c(Cl)cccc2Cl)c1COc1ccc(C(=O)N(Cc2ccccc2)c2ccc(C(=O)O)cc2)c(Cl)c1,2600,–,–
CC(C)c1onc(-c2c(Cl)cccc2Cl)c1COc1ccc(NC(=O)c2cccc(C(=O)O)c2)c(Cl)c1,–,75,–
CC(C)c1onc(-c2c(Cl)cccc2Cl)c1COc1ccc(N(C)C(=O)c2cccc(C(=O)O)c2)c(Cl)c1,–,60,–
CCCCN(C(=O)c1cccc(C(=O)O)c1)c1ccc(OCc2c(-c3c(Cl)cccc3Cl)noc2C(C)C)cc1Cl,–,42,59
CC(C)c1onc(-c2c(Cl)cccc2Cl)c1COc1ccc(N(Cc2ccccc2)C(=O)c2cccc(C(=O)O)c2)c(Cl)c1,> 10000,50,–
CC(C)c1onc(-c2c(Cl)cccc2Cl)c1COc1ccc(N(C(=O)c2cccc(C(=O)O)c2)c2cccc3ccccc23)c(Cl)c1,410,59,–
CC(C)c1onc(-c2c(Cl)cccc2Cl)c1COc1ccc(/C=C/c2cccc(C(=O)O)c2)c(Cl)c1,–,33,–
CC(C)c1onc(-c2c(Cl)cccc2Cl)c1COc1ccc(C(=O)N(Cc2ccccc2)c2cccc(C(=O)O)c2)c(Cl)c1,–,31,–
C[C@H](CCC(=O)O)[C@H]1CC[C@H]2[C@@H]3[C@H](O)C[C@@H]4C[C@H](O)CC[C@]4(C)[C@H]3CC[C@]12C [CHENODIOL],–,50,–
C[C@H](CCC(=O)O)[C@H]1CC[C@H]2[C@@H]3CC[C@@H]4C[C@H](O)CC[C@]4(C)[C@H]3C[C@H](O)[C@]12C [DEOXYCHOLIC ACID],50000,–,–
